In the assay the test system is L4 Heartworm (D. immitis). In words: In vitro L4 heartworm (D. immitis) larval motility assay. In kind it is cell-based, Dirofilaria immitis.

The source of these data is patent US20060105969A1, “Anthelmintic compositions” (priority 1999, published 2006).

Read-outs that look alike come from different tables or passages of the source.

Regarding `CO[C@H]1C[C@H](O[C@@H]2/C(C)=C/C[C@@H]3C[C@@H](C[C@]4(CC[C@H](C)[C@@H](C5CCCCC5)O4)O3)OC(=O)[C@@H]3C=C(C)/C(=N/O)[C@H]4OC/C(=C\C=C\[C@@H]2C)[C@]43O)O[C@@H](C)[C@@H]1O` [(1), 5-oximino 22,23-dihydro-25-cyclohexylayermectin B1 monosaccharide], the “effect in causing mortality or paralysis” value is on record as “only a modest effect”. The “Observation score (larval motility), duplicate observations” value (“Observation score (larval motility)” for short) (1 mcg/ml, 2 h post treatment) is on record as 5/5. Also, the “Observation score (larval motility)” value (1 mcg/ml, 4 h post treatment) was 5/5. The “Observation score (larval motility)” value (1 mcg/ml, 24 h post treatment) is 5/5. Besides, for the setting “1 mcg/ml, 48 h post treatment”, the “Observation score (larval motility)” value is on record as 5/5. Further, the “Observation score (larval motility)” value (1 mcg/ml, 72 h post treatment) is on record as 5/5. Moreover, the “Observation score (larval motility)” value (10 mcg/ml, 2 h post treatment) was 2/2. The “Observation score (larval motility)” value (10 mcg/ml, 4 h post treatment) is reported as 2/0. For the same molecule, the “Observation score (larval motility)” value (10 mcg/ml, 24 h post treatment) is 3/3. Also, the “Observation score (larval motility)” value (10 mcg/ml, 48 h post treatment) is on record as 4/4. In addition, the “Observation score (larval motility)” value (10 mcg/ml, 72 h post treatment) was 3/4.
Take `N#Cc1nn(-c2c(Cl)cc(C(F)(F)F)cc2Cl)c(N)c1[S+]([O-])C(F)(F)F` (stereo not shown) [Fipronil, 5-amino-3-cyano-1-(2,6-dichloro-4-trifluorome-thylphenyl)-4-trifluoromethylsulphinylpyrazole]: the “Observation score (larval motility)” value is listed as 5/5 and the “effect in causing mortality or paralysis” value is recorded as “no observable effect at all”.
